Test results from the supplement of paper PMC10307832.

Experiments:
Test in all cases: relative viability (nuclei count vs DMSO), 5 days (fraction); higher = more cells survive
[1] = system: A-427
How it was run: (§1)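 Lung cancer cell lines in 1536-well plates got either a single drug or a fixed anchor-drug dose together with five library-drug doses (not always all listed) in √10 steps, by pin tool, on the day after seeding. Nuclei were counted after 5 days, and relative viability is the treated-to-vehicle ratio of nuclei counts. Values are medians of duplicate plates.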

[2] = system: ABC-1
How it was run: as §1

[3] = system: COR-L23
How it was run: as §1

[4] = system: EMC-BAC-2
How it was run: as §1

[5] = system: HARA
How it was run: as §1

[6] = system: HOP-62
How it was run: as §1

[7] = system: LK-2
How it was run: as §1

[8] = system: LXF-289
How it was run: as §1

[9] = system: NCI-H1792
How it was run: as §1

[10] = system: NCI-H1793
How it was run: as §1

[11] = system: NCI-H1944
How it was run: as §1

[12] = system: NCI-H1993
How it was run: as §1

[13] = system: NCI-H2009
How it was run: as §1

[14] = system: NCI-H2170
How it was run: as §1

[15] = system: NCI-H2228
How it was run: as §1

[16] = system: NCI-H3122
How it was run: as §1

[17] = system: NCI-H596
How it was run: as §1

[18] = system: NCI-H727
How it was run: as §1

[19] = system: PC-3 [JPC-3]
How it was run: as §1

[20] = system: SK-LU-1
How it was run: as §1

[21] = system: SK-MES-1
How it was run: as §1

[22] = system: SW 1573
How it was run: as §1

[23] = system: SW 900
How it was run: as §1

O=C(O)c1ccc(-c2c[nH]c3ncc(-c4ccccc4)cc23)cc1C1CCCC1 + Cc1nc(Nc2ncc(C(=O)Nc3c(C)cccc3Cl)s2)cc(N2CCN(CCO)CC2)n1 [Dasatinib] (partner 0.075 µM)
relative viability ([1]; first compound 0.04 µM): 0.672 | relative viability ([1]; first compound 0.1265 µM): 0.749 | relative viability ([1]; first compound 0.4 µM): 0.64 | relative viability ([1]; first compound 1.265 µM): 0.595 | relative viability ([2]; first compound 0.04 µM): 0.588 | relative viability ([2]; first compound 0.1265 µM): 0.629 | relative viability ([2]; first compound 0.4 µM): 0.551 | relative viability ([2]; first compound 1.265 µM): 0.604 | relative viability ([3]; first compound 0.04 µM): 0.485 | relative viability ([3]; first compound 0.1265 µM): 0.578 | relative viability ([3]; first compound 0.4 µM): 0.469 | relative viability ([3]; first compound 1.265 µM): 0.3 | relative viability ([4]; first compound 0.04 µM): 0.285 | relative viability ([4]; first compound 0.1265 µM): 0.31 | relative viability ([4]; first compound 0.4 µM): 0.323 | relative viability ([4]; first compound 1.265 µM): 0.294 | relative viability ([5]; first compound 0.04 µM): 0.237 | relative viability ([5]; first compound 0.1265 µM): 0.294 | relative viability ([5]; first compound 0.4 µM): 0.308 | relative viability ([5]; first compound 1.265 µM): 0.3 | relative viability ([6]; first compound 0.04 µM): 0.598 | relative viability ([6]; first compound 0.1265 µM): 0.669 | relative viability ([6]; first compound 0.4 µM): 0.78 | relative viability ([6]; first compound 1.265 µM): 0.666 | relative viability ([7]; first compound 0.04 µM): 0.362 | relative viability ([7]; first compound 0.1265 µM): 0.282 | relative viability ([7]; first compound 0.4 µM): 0.252 | relative viability ([7]; first compound 1.265 µM): 0.274 | relative viability ([8]; first compound 0.04 µM): 0.214 | relative viability ([8]; first compound 0.1265 µM): 0.258 | relative viability ([8]; first compound 0.4 µM): 0.181 | relative viability ([8]; first compound 1.265 µM): 0.206 | relative viability ([9]; first compound 0.1265 µM): 0.8 | relative viability ([9]; first compound 0.4 µM): 0.856 | relative viability ([9]; first compound 1.265 µM): 0.847 | relative viability ([10]; first compound 0.04 µM): 0.376 | relative viability ([10]; first compound 0.1265 µM): 0.473 | relative viability ([10]; first compound 0.4 µM): 0.373 | relative viability ([10]; first compound 1.265 µM): 0.342 | relative viability ([11]; first compound 0.04 µM): 0.227 | relative viability ([11]; first compound 0.1265 µM): 0.254 | relative viability ([11]; first compound 0.4 µM): 0.216 | relative viability ([11]; first compound 1.265 µM): 0.193 | relative viability ([12]; first compound 0.04 µM): 0.592 | relative viability ([12]; first compound 0.1265 µM): 0.568 | relative viability ([12]; first compound 0.4 µM): 0.601 | relative viability ([12]; first compound 1.265 µM): 0.572 | relative viability ([13]; first compound 0.04 µM): 0.322 | relative viability ([13]; first compound 0.1265 µM): 0.312 | relative viability ([13]; first compound 0.4 µM): 0.277 | relative viability ([13]; first compound 1.265 µM): 0.264 | relative viability ([14]; first compound 0.04 µM): 0.522 | relative viability ([14]; first compound 0.1265 µM): 0.623 | relative viability ([14]; first compound 0.4 µM): 0.529 | relative viability ([14]; first compound 1.265 µM): 0.564 | relative viability ([15]; first compound 0.04 µM): 0.601 | relative viability ([15]; first compound 0.1265 µM): 0.607 | relative viability ([15]; first compound 0.4 µM): 0.519 | relative viability ([15]; first compound 1.265 µM): 0.395 | relative viability ([16]; first compound 0.04 µM): 0.927 | relative viability ([16]; first compound 0.1265 µM): 0.858 | relative viability ([16]; first compound 0.4 µM): 0.766 | relative viability ([16]; first compound 1.265 µM): 0.812 | relative viability ([17]; first compound 0.04 µM): 0.596 | relative viability ([17]; first compound 0.1265 µM): 0.572 | relative viability ([17]; first compound 0.4 µM): 0.601 | relative viability ([17]; first compound 1.265 µM): 0.639 | relative viability ([18]; first compound 0.04 µM): 0.298 | relative viability ([18]; first compound 0.1265 µM): 0.398 | relative viability ([18]; first compound 0.4 µM): 0.442 | relative viability ([18]; first compound 1.265 µM): 0.364 | relative viability ([19]; first compound 0.04 µM): 0.981 | relative viability ([19]; first compound 0.1265 µM): 1.09 | relative viability ([19]; first compound 0.4 µM): 1.07 | relative viability ([19]; first compound 1.265 µM): 0.973 | relative viability ([20]; first compound 0.04 µM): 0.169 | relative viability ([20]; first compound 0.1265 µM): 0.194 | relative viability ([20]; first compound 0.4 µM): 0.157 | relative viability ([20]; first compound 1.265 µM): 0.165 | relative viability ([21]; first compound 0.04 µM): 0.406 | relative viability ([21]; first compound 0.1265 µM): 0.384 | relative viability ([21]; first compound 0.4 µM): 0.387 | relative viability ([21]; first compound 1.265 µM): 0.4 | relative viability ([22]; first compound 0.04 µM): 0.398 | relative viability ([22]; first compound 0.1265 µM): 0.542 | relative viability ([22]; first compound 0.4 µM): 0.455 | relative viability ([22]; first compound 1.265 µM): 0.392 | relative viability ([23]; first compound 0.04 µM): 0.577 | relative viability ([23]; first compound 0.1265 µM): 0.712 | relative viability ([23]; first compound 0.4 µM): 0.584 | relative viability ([23]; first compound 1.265 µM): 0.52

O=C(O)c1ccc(-c2c[nH]c3ncc(-c4ccccc4)cc23)cc1C1CCCC1 + N=C(N)NC(=N)NCCc1ccccc1 [Phenformin] (partner 250 µM)
relative viability ([1]; first compound 0.04 µM): 0.317 | relative viability ([1]; first compound 0.1265 µM): 0.446 | relative viability ([1]; first compound 0.4 µM): 0.304 | relative viability ([1]; first compound 1.265 µM): 0.264 | relative viability ([2]; first compound 0.04 µM): 0.272 | relative viability ([2]; first compound 0.1265 µM): 0.232 | relative viability ([2]; first compound 0.4 µM): 0.229 | relative viability ([2]; first compound 1.265 µM): 0.181 | relative viability ([3]; first compound 0.04 µM): 0.424 | relative viability ([3]; first compound 0.1265 µM): 0.507 | relative viability ([3]; first compound 0.4 µM): 0.437 | relative viability ([3]; first compound 1.265 µM): 0.268 | relative viability ([4]; first compound 0.04 µM): 0.513 | relative viability ([4]; first compound 0.1265 µM): 0.554 | relative viability ([4]; first compound 0.4 µM): 0.527 | relative viability ([4]; first compound 1.265 µM): 0.424 | relative viability ([5]; first compound 0.04 µM): 0.469 | relative viability ([5]; first compound 0.1265 µM): 0.479 | relative viability ([5]; first compound 0.4 µM): 0.459 | relative viability ([5]; first compound 1.265 µM): 0.372 | relative viability ([6]; first compound 0.04 µM): 0.699 | relative viability ([6]; first compound 0.1265 µM): 0.669 | relative viability ([6]; first compound 0.4 µM): 0.611 | relative viability ([6]; first compound 1.265 µM): 0.595 | relative viability ([7]; first compound 0.04 µM): 0.733 | relative viability ([7]; first compound 0.1265 µM): 0.699 | relative viability ([7]; first compound 0.4 µM): 0.377 | relative viability ([7]; first compound 1.265 µM): 0.367 | relative viability ([8]; first compound 0.04 µM): 0.543 | relative viability ([8]; first compound 0.1265 µM): 0.507 | relative viability ([8]; first compound 0.4 µM): 0.485 | relative viability ([8]; first compound 1.265 µM): 0.243 | relative viability ([9]; first compound 0.1265 µM): 0.475 | relative viability ([9]; first compound 0.4 µM): 0.353 | relative viability ([9]; first compound 1.265 µM): 0.413 | relative viability ([10]; first compound 0.04 µM): 0.404 | relative viability ([10]; first compound 0.1265 µM): 0.494 | relative viability ([10]; first compound 0.4 µM): 0.374 | relative viability ([10]; first compound 1.265 µM): 0.365 | relative viability ([11]; first compound 0.04 µM): 0.191 | relative viability ([11]; first compound 0.1265 µM): 0.214 | relative viability ([11]; first compound 0.4 µM): 0.194 | relative viability ([11]; first compound 1.265 µM): 0.172 | relative viability ([12]; first compound 0.04 µM): 0.574 | relative viability ([12]; first compound 0.1265 µM): 0.475 | relative viability ([12]; first compound 0.4 µM): 0.477 | relative viability ([12]; first compound 1.265 µM): 0.513 | relative viability ([13]; first compound 0.04 µM): 0.519 | relative viability ([13]; first compound 0.1265 µM): 0.533 | relative viability ([13]; first compound 0.4 µM): 0.512 | relative viability ([13]; first compound 1.265 µM): 0.393 | relative viability ([14]; first compound 0.04 µM): 0.434 | relative viability ([14]; first compound 0.1265 µM): 0.413 | relative viability ([14]; first compound 0.4 µM): 0.459 | relative viability ([14]; first compound 1.265 µM): 0.362 | relative viability ([15]; first compound 0.04 µM): 0.37 | relative viability ([15]; first compound 0.1265 µM): 0.344 | relative viability ([15]; first compound 0.4 µM): 0.349 | relative viability ([15]; first compound 1.265 µM): 0.245 | relative viability ([16]; first compound 0.04 µM): 0.355 | relative viability ([16]; first compound 0.1265 µM): 0.399 | relative viability ([16]; first compound 0.4 µM): 0.394 | relative viability ([16]; first compound 1.265 µM): 0.337 | relative viability ([17]; first compound 0.04 µM): 0.772 | relative viability ([17]; first compound 0.1265 µM): 0.808 | relative viability ([17]; first compound 0.4 µM): 0.79 | relative viability ([17]; first compound 1.265 µM): 0.737 | relative viability ([18]; first compound 0.04 µM): 0.464 | relative viability ([18]; first compound 0.1265 µM): 0.684 | relative viability ([18]; first compound 0.4 µM): 0.582 | relative viability ([18]; first compound 1.265 µM): 0.509 | relative viability ([19]; first compound 0.04 µM): 0.475 | relative viability ([19]; first compound 0.1265 µM): 0.501 | relative viability ([19]; first compound 0.4 µM): 0.468 | relative viability ([19]; first compound 1.265 µM): 0.436 | relative viability ([20]; first compound 0.04 µM): 0.537 | relative viability ([20]; first compound 0.1265 µM): 0.585 | relative viability ([20]; first compound 0.4 µM): 0.459 | relative viability ([20]; first compound 1.265 µM): 0.363 | relative viability ([21]; first compound 0.04 µM): 0.683 | relative viability ([21]; first compound 0.1265 µM): 0.687 | relative viability ([21]; first compound 0.4 µM): 0.637 | relative viability ([21]; first compound 1.265 µM): 0.447 | relative viability ([22]; first compound 0.04 µM): 0.38 | relative viability ([22]; first compound 0.1265 µM): 0.35 | relative viability ([22]; first compound 0.4 µM): 0.276 | relative viability ([22]; first compound 1.265 µM): 0.299 | relative viability ([23]; first compound 0.04 µM): 0.706 | relative viability ([23]; first compound 0.1265 µM): 0.615 | relative viability ([23]; first compound 0.4 µM): 0.654 | relative viability ([23]; first compound 1.265 µM): 0.381
